# Experimental data published in patent publication US7192928B1, “T cell antigen receptor peptides” (Northern Sydney & Central Coast Area Health Services, priority 1996, dated 2007).
# Where “and” joins values, the source holds several entries; their conditions need not be identical. Equal values may be shown once. Read-outs that look alike come from different tables or passages of the source. Marks after values point to notes of the source that are not given here.
# Legend:
# [1] = test system: adjuvant induced arthritis in rats; test: Adjuvant-induced arthritis in rats; type: in vivo, rat; conditions: for Summary of in vivo adjuvant induced arthritis results: TREATMENT: 7 mg peptide with 1 mg MTB, rats with arthritis/rats in group; for efficacy against MTB-induced arthritis: section (ii); for efficacy against MTB-induced arthritis / rats showing no symptoms of arthritis / rats with mild disease / minor symptoms: 7 mg peptide; for effectiveness in adjuvant induced arthritis model, summary statement: summary of Table 4; for rats showing no symptoms of arthritis: duration of the experiment
# [2] = Solubility of the peptides in stock solutions; type: physicochemical; conditions: for appearance of peptide stock solution: stock solutions 1 mg/ml or 1 mM
# Procedure: The solubility of the peptides was variable. At the concentration of the stock solutions, 1 mg/ml or 1 mM, most peptide solutions looked clear. […] Therefore, the true concentration of peptides in solution in the culture wells would be less than those nominated in the case of these partially soluble peptides. Core peptide could be dissolved at 2 mg/ml, but was not completely soluble at 5 mg/ml. […] The vehicle for the peptides, except M and N, was 0.1% acetic acid which gave 0.01%, i.e., 1.75 mM in the wells. […] In these experiments, effects of peptides could still be determined by comparison with the vehicle control. The 0.05M sodium carbonate buffer, used to dissolve peptides M and N, was not as detrimental to line T-cells as acetic acid.
# [3] = test system: rat T-cell line specific to MTB; test: Antigen-stimulated proliferation of MTB-specific T-cell line (3H-thymidine incorporation); type: cell-based; conditions: for effect on T-cell proliferation / counts relative to vehicle control: 100 μM
# [4] = test system: rat primed lymph node cells (PLNC); conditions: for effect on antigen-stimulated T-cell proliferation: PLNC Experiment 2, FIG. 3, peptides alone and in combination; for inhibition of antigen-stimulated T-cell proliferation, overall statement: PLNCs and T-cell lines, summary over experiments
# [5] = peptides 7 mg/rat, CS 50 mg/kg, DXM 2 mg/kg
# [6] = T-Cell Line Experiment 2, FIG. 5
# [7] = section (iii), 5 rats per group
# [8] = respective buffers (0.1% acetic acid; 0.05M sodium carbonate for M and N)
# [9] = section (i), summary of Table 3 experiments
# [10] = PLNC Experiment 1, FIG. 2, peptide 100 μg/ml
compound,measurement,setting,value
"C[C@@H]1C[C@H]2[C@@H]3CCC4=CC(=O)C=C[C@]4(C)[C@@]3(F)[C@@H](O)C[C@]2(C)[C@@]1(O)C(=O)CO [DXM*, dexamethasone, reference compound]",EFFECT on adjuvant induced arthritis,[1]; [5],No effect+
"H-AGFNLLMT-OH [Peptide O, A G F N L L M T]",Summary of in vivo adjuvant induced arthritis results: TREATMENT,[1],1/10*
same,efficacy against MTB-induced arthritis,[1],most effective at ameliorating the development of MTB-induced arthritis
same,"effectiveness in adjuvant induced arthritis model, summary statement",[1],very effective
same,appearance of peptide stock solution,[2],turbid or had undissolved particles
"H-FLFAEIVSI-OH [Peptide N, F L F A E I V S I]",effect on T-cell proliferation,[3]; [6],no effects
same,Summary of in vivo adjuvant induced arthritis results: TREATMENT,[1],0/5*
same,protection,[1]; section (iii),protective to a variable extent
same,rats showing no symptoms of arthritis,[1]; [7],All five
same,"effectiveness in adjuvant induced arthritis model, summary statement",[1],very effective
same,solubility in words,[2]; [8],soluble in their respective buffers
same,effect on antigen-stimulated T-cell proliferation,[4],did not reduce proliferation
"H-GLRILLLKV-OH [CP, G L R I L L L K V]",counts (tritiated thymidine incorporation),"[3]; T-Cell Line Experiment 1, FIG. 4, 100 μg/ml, vehicle control approximately 30000",approximately 18000 cpm
same,counts relative to the control level,"[3]; T-Cell Line Experiment 1, FIG. 4, 200 μg/ml",about 25%
same,counts relative to vehicle control,[3]; [6],approximately 33%
same,counts relative to the control,"[3]; T-Cell Line Experiment 2, FIG. 5, 200 μM",~16%
same,animals with no evidence of arthritis,"[1]; first experiment, three rats per group, after 18 days, suspended in adjuvant, base of tail",2/3
same,EFFECT on adjuvant induced arthritis,[1]; [5],Protective
same,EFFECT on adjuvant induced arthritis,[1]; [9],Best results
same,degree of inhibition of antigen-stimulated T-cell proliferation,[4],50-9096%
same,inhibition at different concentrations in the wells,"[4]; 20 μl of 1, 2 or 5 mg/ml stock added to the wells (0.1, 0.2, 0.5 mg/ml)",0.2 mg/ml CP was more inhibitory than 0.1 mg/ml and 0.5 mg/ml was less effective
same,counts relative to the vehicle control (T-cell proliferation),"[4]; PLNC Experiment 1, FIG. 2, peptide 100 μg/ml, MTB 100 μg/ml",approximately 10%
same,effect on antigen-stimulated T-cell proliferation,[4],"reduced antigen-stimulated T-cell proliferation, whether freshly dissolved or stored for more than three months at 4 °C"
same,"inhibition of antigen-stimulated T-cell proliferation, overall statement",[4],most effective
same,"inhibition of antigen-stimulated T-cell proliferation, overall statement",[4]; listed as core peptide,effective at inhibiting antigen-stimulated T-cell proliferation
same,proliferation reduced by,[4]; first experiment,go
"H-IIVTDVIATL-OH [Peptide M, I I V T D V I A T L]",effect on T-cell proliferation,[3]; [6],no effects
same,Summary of in vivo adjuvant induced arthritis results: TREATMENT,[1],2/5
same,protection,[1]; section (iii),protective to a variable extent
same,rats with mild disease / minor symptoms,[1]; [7],Two
same,rats showing no symptoms of arthritis,[1]; [7],One
same,rats of the group killed,"[1]; section (iii), 5 rats per group, on days 19 and 21",2
same,"effectiveness in adjuvant induced arthritis model, summary statement",[1],variable response in the delay of disease induction and severity
same,solubility in words,[2],soluble in their respective buffers
same,effect on antigen-stimulated T-cell proliferation,[4],did not reduce proliferation
"H-ILLLKVAG-OH [B, I L L L K V A G]",EFFECT on adjuvant induced arthritis,[1]; [5],Protective
same,EFFECT on adjuvant induced arthritis,[1]; [9],Best results
"H-IVIVDICIT-OH [Peptide L, I V I V D I C I T]",Summary of in vivo adjuvant induced arthritis results: TREATMENT,[1],0/5*
same,weight loss,"[1]; section (iv), FIG. 10, 7 mg peptide L, five rats",none of the peptide L treated group lost weight
same,paw and ankle thickness,"[1]; section (iv), FIG. 11(a–d), 7 mg peptide L",significantly decreased compared to control
same,"effectiveness in adjuvant induced arthritis model, summary statement",[1],very effective
"H-LDILLLEV-OH [E, L D I L L L E V]",EFFECT on adjuvant induced arthritis,[1]; [5],No effect
same,EFFECT on adjuvant induced arthritis,[1]; [9],no effect
"H-LGILLLGV-OH [C, L G I L L L G V]",EFFECT on adjuvant induced arthritis,[1]; [5],No effect
same,EFFECT on adjuvant induced arthritis,[1]; [9],no effect
"H-LGILLLKV-OH [I, L G I L L L K V]",EFFECT on adjuvant induced arthritis,[1]; [5],Protective
same,appearance of peptide stock solution,[2],turbid or had undissolved particles
"H-LLMTLRLWSS-OH [Peptide P, L L M T L R L W S S]",effect on T-cell proliferation,[3]; [6],marginal effect
same,Summary of in vivo adjuvant induced arthritis results: TREATMENT,[1],0/5
same,rats that developed minor symptoms,"[1]; Table 4, of 5 treated rats",(4 developed minor symptoms)
same,protection,[1]; section (iii),protective to a variable extent
same,rats with mild disease / minor symptoms,[1]; [7],four
same,rats showing no symptoms of arthritis,[1]; [7],one
same,"effectiveness in adjuvant induced arthritis model, summary statement",[1],variable response in the delay of disease induction and severity
same,appearance of peptide stock solution,[2],turbid or had undissolved particles
same,effect on T-cell proliferation,[4]; [10],most inhibitory
same,effect on antigen-stimulated T-cell proliferation,[4],showed activity
"H-LRILLLGV-OH [Peptide H, L R I L L L G V]",counts relative to vehicle control,[3]; [6],66%
same,EFFECT on adjuvant induced arthritis,[1]; [5],Protective
same,appearance of peptide stock solution,[2],turbid or had undissolved particles
same,effect on T-cell proliferation,[4]; [10],appeared to reduce T-cell proliferation
"H-MGLRILLL-OH [Peptide A, M G L R I L L L]",EFFECT on adjuvant induced arthritis,[1]; [5],Protective
"H-SSDVPCDATLT-OH [K, S S D V P C D A T L T]",Summary of in vivo adjuvant induced arthritis results: TREATMENT,[1],5/10
same,efficacy against MTB-induced arthritis,[1],comparable in efficacy
same,"effectiveness in adjuvant induced arthritis model, summary statement",[1],variable response in the delay of disease induction and severity
same,solubility in words,[2]; [8],soluble in their respective buffers
"H-YGRADCGITS-OH [Peptide J, Y G R A D G G I T S]",Summary of in vivo adjuvant induced arthritis results: TREATMENT,[1],3/10*
same,efficacy against MTB-induced arthritis,[1],comparable in efficacy
same,"effectiveness in adjuvant induced arthritis model, summary statement",[1],very effective
